This note sets out measurements from patent publication US20100168112A1, “2-Substituted and 4-substituted aryl nitrone compounds” (RENOVIS, INC., priority 2004, published 2010).

The assay relates to 1K1C rats. Put plainly: Kidney ischemia-reperfusion injury, one-kidney one-clip (1K1C) model, fractional excretion of sodium. Format: in vivo. As to the method:
Rats were individually housed in a modified cage that was equipped with a raised mesh bottom to separate the fecal product from urine. Before the test, all animals were withheld from food and water overnight. In the morning of the test, normal saline (i.e., 0.9% sodium chloride) was given via oral gavage at […] (Lipschitz, W. L. Hadidian, Z. & Kerpcar, A.: Bioassay of diuretics., J. Pharmacol. Exp. Ther., 79: 97-110, 1943). Samples of blood and urine were collected (standard procedures) at time points (1 and/or 5 hrs after fluid intake) from animals, centrifuged, and kept at 4 degrees until analysis for factors that reflect renal functions. Sodium and creatinine levels were determined by Quality Clinical Labs, Inc. (Mountain View, Calif.). Sodium concentrations were determined by ion selective electrode (standard procedures). Creatinine levels were determined by the alkaline picrated (Jaffe) reaction as described (Liobat-Estelles, M., Sevillano-Cabeja, A. & Campines-Falco, P.: Kinetic chemometric studies of the determination of creatinine using the Jaffe reaction. Part I: kinetics of the reaction; analytical conclusion. Analyst, 11: 597-602, 1989). Fractional excretion of sodium (FENa+), a parameter for ion-handling by the kidney, was calculated, using the following equation: =UNa×Pcr/PNa×Ucr, where UNa is the concentration of sodium in urine; Pcr is the plasma concentration of creatinine; PNa is the […]; and Ucr is the concentration of creatinine in the urine.
After the data for the calculation of basal levels of FENa+ was obtained (Table 16), rats were anesthetized with pentobarbital (65 mg/kg, i.p.). The abdominal region was shaved with a safety razor and sterilized with povidone iodine solution. A midline incision was made and the right kidney was exposed. The right renal pedicle and right urether were both ligated twice with 4-0 sutures and cut between the ligations. The right kidney was then removed. 7 days later, these rats, after another overnight food-water deprivation, were randomly assigned into 3 groups and orally given either Compound 62 (50 mg/kg, at the volume of 1 ml/kg,p.o.) or its vehicle (i.e., 96% of 0.5% CMC and 4 of 20% Tween 80, at the volume of 1 ml/kg, p.o.) 1 hr before kidney ischemia was produced. Positive controls were performed using quercetin (30 mg/kg, i.p.) given 2 hrs before ischemia (Kahraman, A., Erkasap, N., Serteser, M. & Koken, T.: Protective effect of quercetin on renal ischemia/reperfusion injury in rats. J. Nephrol., 16: 219-224, 2003). Animals were then anesthetized and had their left kidneys exposed after opening of their abdominal cavities. A non-traumatic vascular clamp was applied to the left renal pedicle (the ischemia phase), which was released 45 min later (the reperfusion phase). Lipschitz test was then conducted to measure ion-handling capabilities. Normal saline was orally administered at […] as soon as the vascular clamp was released. 60- and 300-min after reperfusion, plasma and urine samples were obtained.

The mark [1] stands for this setting: 1K1C rats, Compound 62 50 mg/kg p.o. 1 hr before ischemia, quercetin 30 mg/kg i.p. 2 hrs before, 45 min ischemia, mean ± SEM.

With `CC(C)(C)/[N+]([O-])=C/c1ccc(S(C)(=O)=O)cc1` [Compound 62, N-tert-Butyl-C-[4-(methanesulfonyl)phenyl]nitrone], the “effect on FENa+ compared with the vehicle treatment group (in words)” value (1K1C rats, 50 mg/kg p.o., acutely dosed) was “significantly enhanced FENa+ 5-hr after reperfusion”. Also, under setting [1], the “1-hr post-ischemic FENa+ (%)” value stood at 0.52 ± 0.29% and the “5-hr post-ischemic FENa+ (%)” value is recorded as 2.52 ± 0.5%. For the same compound, the “FENa+ (%) pre-surgery (basal) levels” value (rats before 1K1C modeling, group baseline, mean ± SEM) is on record as 1.71 ± 0.36%.
